“And” between values parts separate entries of the source, which are not always exact repeats. Equal values may be shown once.

The target of the experiment is K-Ras (Homo sapiens, UniProt P01116). Put plainly: Ras BRET sensor in cells overexpressing WT K-Ras and AT1R. Type of experiment: cell-based. Also noted: expressed in transfected cells; host or cells: HEK293SL. The source says: Because Tyr32 and Tyr40, located on the switch I domain of Ras, are critical for stabilizing Rasarfin binding through interactions with both the chlorine and isopropyl moiety (Fig. 7a, c), we reasoned that substituting them for Ala residues would negatively impact Rasarfin’s inhibitory action on Ras. […] Because we wanted to assess the inhibitory action of Rasarfin over different Ras subtypes, we mutated the two tyrosine residues to an alanine in K-Ras (Y32A, Y40A, and Y32A/Y40A mutants) within the same Rasarfin binding site found in H-Ras (Lys^5-Thr^74). This domain and residues are perfectly conserved among the Ras family members[44],[45]. WT K-Ras and K-Ras mutants were overexpressed along with AT1R in cells and AngII-mediated activation of Ras was assessed using the Ras BRET sensor (Supplementary Fig. 11a).
Sequence of K-Ras (P01116 1-188 isoform P01116-2): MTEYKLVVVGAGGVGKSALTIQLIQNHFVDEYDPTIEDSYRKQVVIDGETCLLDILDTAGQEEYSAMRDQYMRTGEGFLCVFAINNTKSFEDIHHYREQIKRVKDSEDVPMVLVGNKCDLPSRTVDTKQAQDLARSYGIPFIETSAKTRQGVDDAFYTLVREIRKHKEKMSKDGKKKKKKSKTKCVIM
HEK293SL cells were seeded at a density of 7.5 × 10^5 cells per 100-mm dish and 24 h later, transiently transfected as such. For receptor internalization experiments, cells were transfected with 0.12 μg AT1R-RlucII, B2R-RlucII, or β2AR-RlucII and 0.48 μg of either rGFP-CAAX (to assess removal from the PM) or rGFP-FYVE (to assess accumulation in the endosomes). For β-arrestin recruitment assays, cells were transfected with 0.48 μg of receptor-YFP along with 0.12 μg of β-arrestin-RlucII. […] For kinetics of β-arrestin recruitment or β-arrestin binding to receptor and AP-2 experiments, cells were serum starved for 30 min, pretreated with 21 (50 µM) or Barbadin (100 µM) for 30 min, stimulated with 100 nM AngII or 1 µM BK and BRET signals were monitored at indicated times using a Victor X Light plate reader (PerkinElmer). […] The BRET ratio was determined by calculating the ratio of the light emitted by YFP over the light emitted by the RlucII. […] For the kinetics of GTPase and PI3K/Akt activation, cells were serum starved, pretreated with 21 (50 µM) or Wortmannin (200 nM) for 30 min, stimulated with ligand (100 nM AngII or 100 ng/ml EGF) and BRET signals were monitored at indicated times. […]
On the technique in general: Bioluminescence resonance energy transfer reports proximity on the nanometre scale.

On to `CC(C)C(=O)N1CCN(c2ccc(NC(=O)c3cc4ccccc4o3)cc2Cl)CC1` [Compound 21], for which the “AngII-mediated activation of WT K-Ras (Ras BRET sensor)” value (50 μM) is listed as “only WT was significantly inhibited by Rasarfin”. Besides, for the setting “Rasarfin 50 μM, K-Ras WT”, the “AngII-promoted BRET” value is 0.0405 and 0.05833 and 0.04947 and 0.058. Also, under “Rasarfin 50 μM, K-Ras WT, Bonferroni's multiple comparisons test”, the “AngII-promoted BRET, Mean Diff. DMSO - Rasarfin” value came to 0.04859.

Source of the values: article PMC8333425, “Discovery of a dual Ras and ARF6 inhibitor from a GPCR endocytosis screen” (Nature Communications, 2021).
